Measurements taken from patent US20260265190A1, “AROMATIC COMPOUNDS FOR USE AS PROTEIN PHOSPHATASE 2A (PP2A) MODULATORS” (RAPPTA THERAPEUTICS OY, priority 2022, published 2026).

Tests used:
LNCaP cells = test: Cell viability assay (MTS), LNCaP cell line; assay type: cell-based; details: Homo sapiens, 48 hours
Protocol: LNCaP cell line was used for the cell viability assay. LNCaP cells were plated in 96-well plates at a density of 5000 cells per well. After 24 hours of plating, the cells were treated with increasing doses of compound (e.g., compounds 1-38) ranging from 1 μM to 80 μM. Relative cell numbers were analyzed after 48 hours using 3-(4,5-dimethylthiazol-2-yl)-5-(3-carboxymethoxyphenyl)-2-(4-sulfophenyl)-2H-tetrazolium (MTS) assay (Promega) according to the manufacturer's instructions.
(§1) The cell viability data was analyzed with GraphPad Prism software. The values were log transformed and analyzed with non-linear regression (curve-fit) using log (inhibitor) vs. response—variable slope (four parameters) and constraining the bottom to equal zero. Unless otherwise indicated, the GI50 values provided in Table 1 correspond to the LNCaP cell viability assays.

HCC1937 cells = test: Cell viability assay (MTS), HCC1937 cell line; assay type: cell-based; details: Homo sapiens, HCC1937 cell line (footnote a), 48 hours
Protocol: HCC1937 cells are plated in a 96 well plate format at a density of 10,000 cells per well. After incubation overnight, cells are treated with a compound (e.g., compound 5) at the following concentrations: 80, 40, 20, 10, 5, 2.5, 1.25 μM. Compound concentrations are prepared in RPMI via serial dilutions from a starting stock of 80 mM. Forty-eight (48) hours after compound treatment, cell viability is assessed using the Promega CellTiter 96 aqueous one proliferation assay (Promega G3582, MTS assay) according to manufacturer's protocol.
as §1

GI50 (LNCaP cells) [µM]	GI50 (HCC1937 cells) [µM]	Compound
25.7		O=S(=O)(NC1(c2ccc(F)c(F)c2)CCNC1)c1ccc(OC(F)(F)F)cc1 (stereo not shown) [Example 1, N-(3-(3,4-difluorophenyl)pyrrolidin-3-yl)-4-(trifluoromethoxy)benzenesulfonamide]
15.5		O=S(=O)(NC1(c2cc(F)cc(F)c2)CCNCC1)c1ccc(OC(F)(F)F)cc1 [Example 2, N-(4-(3,5-difluorophenyl)piperidin-4-yl)-4-(trifluoromethoxy)benzenesulfonamide]
69.9		O=S(=O)(NC1(c2ccc(Cl)nc2)CCNCC1)c1ccc(OC(F)(F)F)cc1 [Example 3, N-(4-(6-chloropyridin-3-yl)piperidin-4-yl)-4-(trifluoromethoxy)benzenesulfonamide]
6.76		Cc1cc(C2(NS(=O)(=O)c3ccc(OC(F)(F)F)cc3)CCNCC2)ccc1Cl [Example 4, N-(4-(4-chloro-3-methylphenyl)piperidin-4-yl)-4-(trifluoromethoxy)benzenesulfonamide]
	51.4	CC(C)Oc1ccc(S(=O)(=O)NC2(c3ccc(Cl)cn3)CCNCC2)cn1 [Example 5, N-(4-(5-chloropyridin-2-yl)piperidin-4-yl)-6-isopropoxypyridine-3-sulfonamide]
57.5		O=S(=O)(NC1(c2ccccc2)CCC2(CC2)NC1)c1ccc(OC(F)(F)F)cc1 (stereo not shown) [Example 6, N-(6-phenyl-4-azaspiro[2.5]octan-6-yl)-4-(trifluoromethoxy)benzenesulfonamide]
36.8		CC(C)Oc1ccc(S(=O)(=O)NC2(c3ccc(F)c(F)c3)CCNCC2)cn1 [Example 7, N-(4-(3,4-difluorophenyl)piperidin-4-yl)-6-isopropoxypyridine-3-sulfonamide]
25.2		CNc1cc(S(=O)(=O)NC2(c3ccc(Cl)cc3)CCNCC2)ccc1OC(F)(F)F [Example 8, N-(4-(4-chlorophenyl)piperidin-4-yl)-3-(methylamino)-4-(trifluoromethoxy)benzenesulfonamide]
28.8		O=S(=O)(NC1(c2cc(Cl)ncc2Cl)CCNCC1)c1ccc(OC(F)(F)F)cc1 [Example 9, N-(4-(2,5-dichloropyridin-4-yl)piperidin-4-yl)-4-(trifluoromethoxy)benzenesulfonamide]
20.5		O=S(=O)(NC(c1ccccc1)C1CCNCC1)c1ccc(OC(F)(F)F)cc1 (stereo not shown) [Example 10, N-(phenyl(piperidin-4-yl)methyl)-4-(trifluoromethoxy)benzenesulfonamide]
24.7		O=S(=O)(N[C@@H](c1ccccc1)C1CCNCC1)c1ccc(OC(F)(F)F)cc1 [Example 11, (R)-N-(phenyl(piperidin-4-yl)methyl)-4-(trifluoromethoxy)benzenesulfonamide]
27.1		O=S(=O)(N[C@H](c1ccccc1)C1CCNCC1)c1ccc(OC(F)(F)F)cc1 [Example 12, (S)-N-(phenyl(piperidin-4-yl)methyl)-4-(trifluoromethoxy)benzenesulfonamide]
10		O=S(=O)(N[C@@H](c1ccc(Cl)cc1)C1CCNCC1)c1ccc(OC(F)(F)F)cc1 [Example 13, (R)-N-((4-chlorophenyl)(piperidin-4-yl)methyl)-4-(trifluoromethoxy)benzenesulfonamide]
11.3		O=S(=O)(N[C@H](c1ccc(Cl)cc1)C1CCNCC1)c1ccc(OC(F)(F)F)cc1 [Example 14, (S)-N-((4-chlorophenyl)(piperidin-4-yl)methyl)-4-(trifluoromethoxy)benzenesulfonamide]
	48.7	O=S(=O)(N[C@H](c1ccc(Cl)cn1)C1CCNCC1)c1ccc(OC(F)(F)F)cc1 [Example 15, (S)-N-((5-chloropyridin-2-yl)(piperidin-4-yl)methyl)-4-(trifluoromethoxy)benzenesulfonamide]
23.4		CC(C)Oc1ccc(S(=O)(=O)N[C@@H](c2ccc(Cl)cc2)C2CCNCC2)cn1 [Example 16, (R)-N-((4-chlorophenyl)(piperidin-4-yl)methyl)-6-isopropoxypyridine-3-sulfonamide]
26.4		CC(C)Oc1ccc(S(=O)(=O)N[C@H](c2ccc(Cl)cc2)C2CCNCC2)cn1 [Example 17, (S)-N-((4-chlorophenyl)(piperidin-4-yl)methyl)-6-isopropoxypyridine-3-sulfonamide]
	74.3	CC(C)Oc1ccc(S(=O)(=O)N[C@@H](c2ccccc2)C2CCNCC2)cn1 [Example 18, (R)-6-isopropoxy-N-(phenyl(piperidin-4-yl)methyl)pyridine-3-sulfonamide]
	74.5	CC(C)Oc1ccc(S(=O)(=O)N[C@H](c2ccccc2)C2CCNCC2)cn1 [Example 19, (S)-6-isopropoxy-N-(phenyl(piperidin-4-yl)methyl)pyridine-3-sulfonamide]

GI50 (LNCaP cells) [µM]	GI50 (HCC1937 cells) [µM]	Compound
27.1		O=S(=O)(NC(CN1CCNCC1)c1ccc(F)cc1F)c1ccc(OC(F)(F)F)cc1 (stereo not shown) [Example 20, N-(1-(2,4-difluorophenyl)-2-(piperazin-1-yl)ethyl)-4-(trifluoromethoxy)benzenesulfonamide]
33.8		O=S(=O)(NC(CN1CCNCC1)c1ccc(F)c(F)c1)c1ccc(OC(F)(F)F)cc1 (stereo not shown) [Example 21, N-(1-(3,4-difluorophenyl)-2-(piperazin-1-yl)ethyl)-4-(trifluoromethoxy)benzenesulfonamide]
51.1		CC(C)Oc1ccc(S(=O)(=O)NC(CN2CCNCC2)c2ccc(Cl)cc2)cn1 (stereo not shown) [Example 22, N-(1-(4-chlorophenyl)-2-(piperazin-1-yl)ethyl)-6-isopropoxypyridine-3-sulfonamide]
30.8		Nc1cc(S(=O)(=O)NC(CN2CCNCC2)c2ccc(Cl)cc2)ccc1OC(F)(F)F (stereo not shown) [Example 23, 3-amino-N-(1-(4-chlorophenyl)-2-(piperazin-1-yl)ethyl)-4-(trifluoromethoxy)benzenesulfonamide]
	27	CC(C)Oc1ccc(S(=O)(=O)NC(CN2CCNCC2)c2ccc(F)c(F)c2)cn1 (stereo not shown) [Example 24, N-(1-(3,4-difluorophenyl)-2-(piperazin-1-yl)ethyl)-6-isopropoxypyridine-3-sulfonamide]
47.5		O=S(=O)(N[C@H](CN1CCC[C@H](F)C1)c1ccc(F)cc1)c1ccc(OC(F)(F)F)cc1 [Example 26, N-((S)-1-(4-fluorophenyl)-2-((S)-3-fluoropiperidin-1-yl)ethyl)-4-(trifluoromethoxy)benzenesulfonamide]
24.4		O=S(=O)(N[C@H](CN1CC(N2CCC2)C1)c1ccc(F)cc1)c1ccc(OC(F)(F)F)cc1 [Example 27, (S)-N-(2-([1,3′-biazetidin]-1′-yl)-1-(4-fluorophenyl)ethyl)-4-(trifluoromethoxy)benzenesulfonamide]
14.4		CN(C)CC(NS(=O)(=O)c1ccc(Oc2cccc(C(F)(F)F)c2)cc1)c1ccc(Cl)c(Cl)c1 (stereo not shown) [Example 28, N-(1-(3,4-dichlorophenyl)-2-(dimethylamino)ethyl)-4-(3-(trifluoromethyl)phenoxy)benzenesulfonamide]
78.7		CC(C)Oc1ccc(S(=O)(=O)NCC2(c3ccccc3)CC2(C)C)cn1 (stereo not shown) [Example 29, N-((2,2-dimethyl-1-phenylcyclopropyl)methyl)-6-isopropoxypyridine-3-sulfonamide]
22.8		CC(C)Oc1ccc(S(=O)(=O)NC(c2cc(Cl)cc(Cl)c2)C2CCCCC2)cn1 (stereo not shown) [Example 30, N-(cyclohexyl(3,5-dichlorophenyl)methyl)-6-isopropoxypyridine-3-sulfonamide]
41.9		CN(C)CC(NC(=O)c1ccc(OC(F)(F)F)cc1)c1ccc(Cl)c(Cl)c1 (stereo not shown) [Example 31, N-(1-(3,4-dichlorophenyl)-2-(dimethylamino)ethyl)-4-(trifluoromethoxy)benzamide]
2.1		CN(C)CC(NC(=O)c1ccc(OC(F)(F)F)c([N+](=O)[O-])c1)c1ccc(Cl)c(Cl)c1 (stereo not shown) [Example 32, N-(1-(3,4-dichlorophenyl)-2-(dimethylamino)ethyl)-3-nitro-4-(trifluoromethoxy)benzamide]
23.3		O=C(NC1(c2ccc(Cl)cc2)CCNC1)c1ccc(OC(F)(F)F)cc1 (stereo not shown) [Example 33, N-(3-(4-chlorophenyl)pyrrolidin-3-yl)-4-(trifluoromethoxy)benzamide]
54.6		CN(C)CC(c1ccc(Cl)c(Cl)c1)n1cc(-c2ccc(OC(F)(F)F)cc2)cn1 (stereo not shown) [Example 34, 2-(3,4-dichlorophenyl)-N,N-dimethyl-2-(4-(4-(trifluoromethoxy)phenyl)-1H-pyrazol-1-yl)ethan-1-amine]
20.4		CN(C)CC(c1ccc(Cl)c(Cl)c1)n1cnc(-c2ccc(OC(F)(F)F)cc2)c1 (stereo not shown) [Example 35, 2-(3,4-dichlorophenyl)-N,N-dimethyl-2-(4-(4-(trifluoromethoxy)phenyl)-1H-imidazol-1-yl)ethan-1-amine]
25.2		FC(F)(F)Oc1ccc(-c2cn(C3(c4ccc(Cl)cc4)CCNC3)cn2)cc1 (stereo not shown) [Example 36, 1-(3-(4-chlorophenyl)pyrrolidin-3-yl)-4-(4-(trifluoromethoxy)phenyl)-1H-imidazole]
30.5		FC(F)(F)Oc1ccc(-c2cnn(C3(c4ccccc4)CCNC3)c2)cc1 (stereo not shown) [Example 37, 1-(3-phenylpyrrolidin-3-yl)-4-(4-(trifluoromethoxy)phenyl)-1H-pyrazole]
23		O=S(=O)(Nc1ccc(OC(F)(F)F)cc1)C1(c2ccccc2)CCNCC1 [Example 38, 4-phenyl-N-(4-(trifluoromethoxy)phenyl)piperidine-4-sulfonamide]
